Test results published in the NIST ThermoML archive (doi:10.1016/j.fluid.2007.04.028).

Details: Fluid (supercritical or subcritical phases), Cylindrical cavity resonance method

C[Si]1(C)O[Si](C)(C)O[Si](C)(C)O[Si](C)(C)O[Si](C)(C)O1 [decamethylcyclopentasiloxane]
Details	speed of sound [m/s]
485 K, 35.39 kPa	101.91
485 K, 43.63 kPa	101.14
485 K, 49.43 kPa	100.67
485 K, 55.24 kPa	100.36
485 K, 63.6 kPa	99.2
485 K, 64.42 kPa	99.13
485 K, 74.85 kPa	98.38
485 K, 82.92 kPa	97.28
485 K, 85.12 kPa	97.17
500 K, 22.13 kPa	104.94
500 K, 22.48 kPa	104.92
500 K, 26.3 kPa	104.68
500 K, 31.33 kPa	104.22
500 K, 32.27 kPa	104.14
500 K, 33.93 kPa	103.96
500 K, 39.9 kPa	103.53
500 K, 42.7 kPa	103.27
500 K, 47.88 kPa	102.87
500 K, 51.58 kPa	102.58
500 K, 55.42 kPa	102.2
500 K, 64.64 kPa	101.5
500 K, 64.96 kPa	101.44
500 K, 73.64 kPa	100.81
500 K, 74.95 kPa	100.63
500 K, 78.98 kPa	100.22
500 K, 85.9 kPa	99.5
500 K, 95.37 kPa	98.56
500 K, 105.42 kPa	97.6
500 K, 116.6 kPa	96.56
510 K, 34.55 kPa	105.2
510 K, 43.26 kPa	104.68
510 K, 51.27 kPa	104.86
510 K, 57.1 kPa	103.49
510 K, 62.78 kPa	103.98
510 K, 72.53 kPa	102.37
510 K, 82.51 kPa	101.58
510 K, 89.89 kPa	100.87
510 K, 92.75 kPa	100.75
510 K, 103.28 kPa	99.89
510 K, 110.69 kPa	99.98

C[Si]1(C)O[Si](C)(C)O[Si](C)(C)O[Si](C)(C)O1 [octamethylcyclotetrasiloxane]
Details	speed of sound [m/s]
450 K, 38.9 kPa	110.35
450 K, 46.7 kPa	109.66
450 K, 57.41 kPa	108.8
450 K, 62.89 kPa	108.3
450 K, 69.33 kPa	107.73
465 K, 31.29 kPa	113.04
465 K, 32.63 kPa	112.99
465 K, 36.51 kPa	112.75
465 K, 40.99 kPa	112.32
465 K, 46.84 kPa	111.94
465 K, 47.85 kPa	111.91
465 K, 49.18 kPa	111.72
465 K, 57.21 kPa	111.2
465 K, 58.99 kPa	110.98
465 K, 61.46 kPa	110.82
465 K, 68.51 kPa	110.33
465 K, 70.69 kPa	110.06
465 K, 73.59 kPa	109.87
465 K, 74.87 kPa	109.83
465 K, 77.48 kPa	109.53
465 K, 81.72 kPa	109.28
465 K, 87.87 kPa	108.72
465 K, 92.89 kPa	108.29
465 K, 97.68 kPa	107.96
465 K, 101.01 kPa	107.53
465 K, 105.11 kPa	107.28
465 K, 106.95 kPa	107.18
465 K, 111.4 kPa	106.69
465 K, 116.93 kPa	106.3
465 K, 121.67 kPa	105.76
465 K, 123.48 kPa	105.66
480 K, 42.7 kPa	114.02
480 K, 54.67 kPa	113.2
480 K, 65.08 kPa	112.48
480 K, 71.3 kPa	112.04
480 K, 85.5 kPa	111.07
480 K, 92.46 kPa	110.5
480 K, 109.21 kPa	109.24
480 K, 118.88 kPa	108.49
480 K, 129.21 kPa	107.67
480 K, 140.39 kPa	106.77
480 K, 152.36 kPa	105.77
480 K, 165.42 kPa	104.64
495 K, 27.45 kPa	117.14
495 K, 36.2 kPa	116.66
495 K, 47.54 kPa	115.98
495 K, 143.41 kPa	109.74
495 K, 159.7 kPa	108.43
495 K, 160.4 kPa	108.39
495 K, 174.53 kPa	107.35
495 K, 186.64 kPa	106.44
495 K, 198.61 kPa	105.49
495 K, 224.52 kPa	103.41
